In patent US4778803A, “Nitrogen-arylmethoxy-thiophene derivatives and acid addition salts thereof, and pharmaceutical preparations containing these compounds” (Chemie Linz Aktiengesellschaft, priority 1986, dated 1988):

Test system: leukotriene B4 (LTB4) formation in human granulocytes
Test: inhibitory action on leukotriene B4 (LTB4) formation induced by the calcium ionophor A 23-187 in human granulocytes
Assay type: cell-based
Conditions: 10 min, 10^7 cells per ml, 10 minutes at 37° C. with compound, then 10 minutes with A 23 187 (final concentration 1 μm), HPLC, 280 nm, 2 experiments per concentration, read-out: concentration which led to a 50% inhibition (IC50) of LTB4 formation
Method: To investigate the pharmacological properties of the substances according to the invention, their inhibitory action on leukotriene B4 (LTB4) formation induced by the calcium ionophor A 23-187 was measured. For this, human granulocytes were washed, the cell count was adjusted to 10^7 cells per ml and the cells were incubated for 10 minutes at 37° C. with the compounds according to the invention, such as, for example, 1-(5-(2-quinolinylmethoxy)-2-thienyl)-1-hexanone (compound according to Example 3) or alpha-pentyl-5-(2-quinolinylmethoxy)-2-thiophenemethanol (compound according to Example 5), which had been dissolved to 10^-2 M in dimethylsulfoxide and diluted to the desired concentration with physiological NaCl. The cells were then incubated for a further 10 minutes, after addition of A 23 187 (final concentration 1 μm). The reaction was stopped by addition of glacial acetic acid. The mixture was centrifuged, the supernatant was pipetted off and prostaglandin B2 was added as an internal standard.
The lipid fraction was resolved via HPLC, LTB4 and its 20--OH-- and 20--COOH-metabolites being determined photometrically at 280 nm.
2 experiments were carried out for each concentration value of the substances according to the invention and the concentration which led to a 50% inhibition (IC50) of LTB4 formation was determined for each substance. […]

| IC50 [nM] | Structure (SMILES) |
| --- | --- |
| 200 | CCCCCC(=O)c1ccc(OCc2ccc3ccccc3n2)s1 [Example 3, 1-[5-(2-Quinolinylmethoxy)-2-thienyl]-1-hexanone] |
| 1000 | CCCCCC(O)c1ccc(OCc2ccc3ccccc3n2)s1 (stereo not drawn) [Example 5, α-Pentyl-5-(2-quinolinylmethoxy)-2-thiophenemethanol] |
